Experimental data published in ChEMBL document CHEMBL1201861, “Genomics of Drug Sensitity in Cancer screening data, Wellcome Trust Sanger Institute”.

What was measured:
Assay in all cases: cells
[1] = test system: LN-405; type: functional, cell-based, Homo sapiens; conditions: Homo sapiens, LN-405
Description: SANGER: Inhibition of human LN-405 cell growth in a cell viability assay.

[2] = test system: TGBC1TKB; type: functional, cell-based, Homo sapiens; conditions: Homo sapiens, TGBC1TKB;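 also: growth inhibition of TGBC1TKB cells, read out by a cell viability assay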
Description: SANGER: Inhibition of human TGBC1TKB cell growth in a cell viability assay.

[3] = test system: GT3TKB; type: functional, cell-based, Homo sapiens; conditions: Homo sapiens, GT3TKB;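 also: growth inhibition of the cell line, read out with a cell viability assay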
Description: SANGER: Inhibition of human GT3TKB cell growth in a cell viability assay.

[4] = test system: GMS-10; type: functional, cell-based, Homo sapiens; conditions: Homo sapiens, GMS-10;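 also: growth inhibition of GMS-10 cells, read out as cell viability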
Description: SANGER: Inhibition of human GMS-10 cell growth in a cell viability assay.

[5] = test system: CHP-212; type: functional, cell-based, Homo sapiens; conditions: Homo sapiens, CHP-212
Description: SANGER: Inhibition of human CHP-212 cell growth in a cell viability assay.

[6] = test system: VA-ES-BJ; type: functional, cell-based, Homo sapiens; conditions: Homo sapiens, VA-ES-BJ;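 also: growth inhibition of the VA-ES-BJ cell line, read out by a cell viability assay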
Description: SANGER: Inhibition of human VA-ES-BJ cell growth in a cell viability assay.

[7] = test system: SF-126; type: functional, cell-based, Homo sapiens; conditions: Homo sapiens, SF-126;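 also: growth inhibition of human SF126 cells, read out with a cell viability assay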
Description: SANGER: Inhibition of human SF126 cell growth in a cell viability assay.

[8] = test system: DMS-273; type: functional, cell-based, Homo sapiens; conditions: Homo sapiens, DMS-273
Description: SANGER: Inhibition of human DMS-273 cell growth in a cell viability assay.

[9] = test system: EW-11; type: functional, cell-based, Homo sapiens; conditions: Homo sapiens, EW-11;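 also: growth inhibition of human EW-11 cells, measured with a cell viability assay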
Description: SANGER: Inhibition of human EW-11 cell growth in a cell viability assay.

[10] = test system: LB996-RCC; type: functional, cell-based; conditions: Homo sapiens
Description: SANGER: Inhibition of human LB996-RCC cell growth in a cell viability assay.

[11] = test system: BFTC-909; type: functional, cell-based, Homo sapiens; conditions: Homo sapiens, BFTC-909
Description: SANGER: Inhibition of human BFTC-909 cell growth in a cell viability assay.

[12] = test system: OMC-1; type: functional, cell-based, Homo sapiens; conditions: Homo sapiens, OMC-1;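 also: growth inhibition of the OMC-1 cell line, measured by a cell viability assay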
Description: SANGER: Inhibition of human OMC-1 cell growth in a cell viability assay.

[13] = test system: Ca9-22; type: functional, cell-based, Homo sapiens; conditions: Homo sapiens, Ca9-22;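 also: growth inhibition of Ca9-22 cells, read out with a cell viability assay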
Description: SANGER: Inhibition of human Ca9-22 cell growth in a cell viability assay.

[14] = test system: NCI-H1793; type: functional, cell-based, Homo sapiens; conditions: Homo sapiens, NCI-H1793;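 also: cell growth inhibition, read out by a cell viability assay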
Description: SANGER: Inhibition of human NCI-H1793 cell growth in a cell viability assay.

[15] = test system: Huh-7; type: functional, cell-based, Homo sapiens; conditions: Homo sapiens, Huh-7;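 also: HuH-7 cell growth inhibition, read out with a cell viability assay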
Description: SANGER: Inhibition of human HuH-7 cell growth in a cell viability assay.

[16] = test system: NCI-H810; type: functional, cell-based, Homo sapiens; conditions: Homo sapiens, NCI-H810;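 also: IC50 reflects inhibition of cancer cell line growth, read out with a cell viability assay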
Description: SANGER: Inhibition of human NCI-H810 cell growth in a cell viability assay.

[17] = test system: DU-145; type: functional, cell-based, Homo sapiens; conditions: Homo sapiens, DU-145
Description: SANGER: Inhibition of human DU-145 cell growth in a cell viability assay.

[18] = test system: SW756; type: functional, cell-based, Homo sapiens; conditions: Homo sapiens, SW756;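 also: growth inhibition of human SW756 cells, read out with a cell viability assay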
Description: SANGER: Inhibition of human SW756 cell growth in a cell viability assay.

[19] = test system: HCC 2998; type: functional, cell-based, Homo sapiens; conditions: Homo sapiens, HCC 2998;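 also: growth inhibition of human HCC2998 cells, measured with a cell viability read-out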
Description: SANGER: Inhibition of human HCC2998 cell growth in a cell viability assay.

[20] = test system: KINGS-1; type: functional, cell-based, Homo sapiens; conditions: Homo sapiens, KINGS-1;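 also: cell viability assay measuring suppression of KINGS-1 cell growth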
Description: SANGER: Inhibition of human KINGS-1 cell growth in a cell viability assay.

[21] = test system: UACC-257; type: functional, cell-based, Homo sapiens; conditions: Homo sapiens, UACC-257
Description: SANGER: Inhibition of human UACC-257 cell growth in a cell viability assay.

[22] = test system: GI-ME-N; type: functional, cell-based, Homo sapiens; conditions: Homo sapiens, GI-ME-N;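 also: growth inhibition of human GI-ME-N cells, read out with a cell viability assay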
Description: SANGER: Inhibition of human GI-ME-N cell growth in a cell viability assay.

[23] = test system: IST-MES1; type: functional, cell-based, Homo sapiens; conditions: Homo sapiens, IST-MES1;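 also: growth inhibition of IST-MES1 cells, measured with a cell viability assay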
Description: SANGER: Inhibition of human IST-MES1 cell growth in a cell viability assay.

[24] = test system: DOK; type: functional, cell-based, Homo sapiens; conditions: Homo sapiens, DOK;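 also: cell viability assay read-out, values reflect inhibition of cell growth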
Description: SANGER: Inhibition of human DOK cell growth in a cell viability assay.

[25] = test system: C32; type: functional, cell-based, Homo sapiens; conditions: Homo sapiens, C32;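 also: cell viability assay, with IC50 reflecting inhibition of C32 cell growth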
Description: SANGER: Inhibition of human C32 cell growth in a cell viability assay.

[26] = test system: HCT-116; type: functional, cell-based, Homo sapiens; conditions: Homo sapiens, HCT-116
Description: SANGER: Inhibition of human HCT-116 cell growth in a cell viability assay.

[27] = test system: 5637; type: functional, cell-based, Homo sapiens; conditions: Homo sapiens
Description: SANGER: Inhibition of human 5637 cell growth in a cell viability assay.

[28] = test system: Ca-Ski; type: functional, cell-based; conditions: Homo sapiens;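 also: cell viability assay measuring inhibition of Ca-Ski cell growth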
Description: SANGER: Inhibition of human Ca-Ski cell growth in a cell viability assay.

[29] = test system: IST-MEL1; type: functional, cell-based, Homo sapiens; conditions: Homo sapiens, IST-MEL1;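 also: growth inhibition of the cell line, read out with a cell viability assay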
Description: SANGER: Inhibition of human IST-MEL1 cell growth in a cell viability assay.

[30] = test system: OVCAR-3; type: functional, cell-based, Homo sapiens; conditions: Homo sapiens, OVCAR-3;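 also: growth inhibition of human OVCAR-3 cells, determined by a cell viability assay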
Description: SANGER: Inhibition of human OVCAR-3 cell growth in a cell viability assay.

[31] = test system: NB69; type: functional, cell-based, Homo sapiens; conditions: Homo sapiens, NB69;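 also: growth inhibition of NB69 cells, determined by a cell viability assay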
Description: SANGER: Inhibition of human NB69 cell growth in a cell viability assay.

[32] = test system: SiHa; type: functional, cell-based, Homo sapiens; conditions: Homo sapiens, SiHa;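 also: Viability-based readout of growth inhibition in SiHa cells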
Description: SANGER: Inhibition of human SiHa cell growth in a cell viability assay.

[33] = test system: SW684; type: functional, cell-based, Homo sapiens; conditions: Homo sapiens, SW684;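 also: growth inhibition of human SW684 cells, measured by a cell viability assay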
Description: SANGER: Inhibition of human SW684 cell growth in a cell viability assay.

[34] = test system: NCI-H1395; type: functional, cell-based, Homo sapiens; conditions: Homo sapiens, NCI-H1395;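 also: cell viability assay read-out quantifying reduced proliferation of human NCI-H1395 cells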
Description: SANGER: Inhibition of human NCI-H1395 cell growth in a cell viability assay.

[35] = test system: IGR-1; type: functional, cell-based, Homo sapiens; conditions: Homo sapiens, IGR-1;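 also: growth inhibition of human IGR-1 cells, read out with a cell viability assay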
Description: SANGER: Inhibition of human IGR-1 cell growth in a cell viability assay.

[36] = test system: LCLC-103H cell line; type: functional, cell-based, Homo sapiens; conditions: Homo sapiens, LCLC-103H
Description: SANGER: Inhibition of human LCLC-103H cell growth in a cell viability assay.

[37] = test system: SW1990; type: functional, cell-based, Homo sapiens; conditions: Homo sapiens, SW1990;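 also: cell growth inhibition determined with a viability assay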
Description: SANGER: Inhibition of human SW1990 cell growth in a cell viability assay.

[38] = test system: MIA PaCa-2; type: functional, cell-based, Homo sapiens; conditions: Homo sapiens, MIA PaCa-2;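 also: growth inhibition of MIA PaCa-2 cells, read out with a cell viability assay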
Description: SANGER: Inhibition of human MIA-PaCa-2 cell growth in a cell viability assay.

[39] = test system: NCI-H1792; type: functional, cell-based, Homo sapiens; conditions: Homo sapiens, NCI-H1792;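 also: growth inhibition of human NCI-H1792 cells, read out as cell viability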
Description: SANGER: Inhibition of human NCI-H1792 cell growth in a cell viability assay.

[40] = test system: KYSE-450; type: functional, cell-based; conditions: Homo sapiens;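 also: cell growth inhibition measured by a viability assay in human KYSE-450 cells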
Description: SANGER: Inhibition of human KYSE-450 cell growth in a cell viability assay.

[41] = test system: NCI-H2228; type: functional, cell-based, Homo sapiens; conditions: Homo sapiens, NCI-H2228;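 also: growth inhibition of human NCI-H2228 cells, read out by a cell viability assay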
Description: SANGER: Inhibition of human NCI-H2228 cell growth in a cell viability assay.

[42] = test system: MLMA; type: functional, cell-based, Homo sapiens; conditions: Homo sapiens, MLMA;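 also: growth inhibition of MLMA cells (human), determined through a cell viability readout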
Description: SANGER: Inhibition of human MLMA cell growth in a cell viability assay.

[43] = test system: NCI-N87; type: functional, cell-based, Homo sapiens; conditions: Homo sapiens, NCI-N87;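 also: growth inhibition of human NCI-N87 cells, read out with a cell viability assay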
Description: SANGER: Inhibition of human NCI-N87 cell growth in a cell viability assay.

[44] = test system: HMV-2 cell line; type: functional, cell-based, Homo sapiens; conditions: Homo sapiens, HMV-2;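 also: growth inhibition of HMV-II cells, read out with a cell viability assay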
Description: SANGER: Inhibition of human HMV-II cell growth in a cell viability assay.

[45] = test system: NCI-H2122; type: functional, cell-based, Homo sapiens; conditions: Homo sapiens, NCI-H2122;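 also: growth inhibition of the cells, read out with a cell viability assay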
Description: SANGER: Inhibition of human NCI-H2122 cell growth in a cell viability assay.

[46] = test system: QIMR-WIL; type: functional, cell-based; conditions: Homo sapiens;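 also: growth inhibition of QIMR-WIL cells, read out with a cell viability assay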
Description: SANGER: Inhibition of human QIMR-WIL cell growth in a cell viability assay.

[47] = test system: NCI-H596; type: functional, cell-based, Homo sapiens; conditions: Homo sapiens, NCI-H596;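 also: growth inhibition of NCI-H596 cells, read out with a cell viability assay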
Description: SANGER: Inhibition of human NCI-H596 cell growth in a cell viability assay.

[48] = test system: Lu-65; type: functional, cell-based; conditions: Homo sapiens;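 also: growth inhibition of Lu-65 cancer cells, read out by a cell viability assay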
Description: SANGER: Inhibition of human LU-65 cell growth in a cell viability assay.

[49] = test system: NCI-H69; type: functional, cell-based; conditions: Homo sapiens;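 also: growth inhibition of the cell line, read out with a cell viability assay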
Description: SANGER: Inhibition of human NCI-H69 cell growth in a cell viability assay.

[50] = test system: COR-L88; type: functional, cell-based; conditions: Homo sapiens;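 also: growth inhibition of COR-L88 cells, read out with a cell viability assay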
Description: SANGER: Inhibition of human COR-L88 cell growth in a cell viability assay.

Measured: IC50

O=c1cc(-c2cccc3c2Sc2ccccc2S3)oc(N2CCOCC2)c1 [KU-55933]
3.27 µM: [17]
not listed: [48] | [49] | [50]
> 10 µM: all other assays above

O=C(c1cc(Cc2n[nH]c(=O)c3ccccc23)ccc1F)N1CCN(C(=O)C2CC2)CC1 [OLAPARIB]
not listed: [10]
> 5 µM: all other assays above
